# Literature values in the CATMoS acute toxicity set (Mansouri et al. 2021).
# Several values for one entry are separate records, joined by “and”; a condition that tells them apart may be missing. Equal entries are not always repeated.
# Assay: rat acute oral toxicity
# Details: in vivo
row,Structure (SMILES),LD50
1,CN(C)N=Nc1cccnc1,160 mg/kg
2,C[N+](C)(N)CCBr,3200 mg/kg
3,O=C(O)C1CCc2cc(C3CCCCC3)c(O)cc21 (stereo not drawn),450 mg/kg
4,O=C(Cl)CCCCCCCCC(=O)Cl,400 mg/kg
5,CCOC(=O)C(C(C)=O)C(=O)Cc1c(C)n(C(=O)c2ccc(Cl)cc2)c2ccc(OC)cc12 (stereo not drawn),175 mg/kg
6,CCC(C)c1cc([N+](=O)[O-])cc([N+](=O)[O-])c1OC(C)=O (stereo not drawn),60 mg/kg
7,O=NN1CN(N=O)CN(N=O)C1,160 mg/kg
8,NC1(C(=O)O)CCCC1,290 mg/kg and 260 mg/kg
9,CC(Oc1ccc(Oc2ncc(Cl)cc2Cl)cc1)C(=O)N1CCCO1 (stereo not drawn),500 mg/kg
10,CC(N)CCN (stereo not drawn),1350 mg/kg
11,C[N+](C)(C)[O-],8700 mg/kg
12,CC(CN(C)C)C(C)(O)Cc1ccc(Cl)cc1 (stereo not drawn),802 mg/kg
13,ClCCOCOCCCl,65 mg/kg
14,CNS(=O)(=O)c1cc(OC)c(N)cc1C,91.5 mg/kg
15,CNC(=O)Oc1cc(C(C)C)ccc1C,250 mg/kg
16,CNC(=O)Oc1ccccc1C1OCC(C)(C)O1 (stereo not drawn),110 mg/kg
17,COP(=S)(OC)Oc1ccc(S(N)(=O)=O)cc1,160 mg/kg
18,Oc1cc2c3c(c1)c1cc4c(cc1c[n+]3CC2)OCO4,90 mg/kg
19,CCCCC(CC)COC(C[n+]1ccccc1)c1cccc(Cl)c1 (stereo not drawn),250 mg/kg
20,CCOC(C1=NCCCCN1)c1ccccc1 (stereo not drawn),375 mg/kg
21,Cc1cc(=O)[nH]o1,3110 mg/kg
22,Cc1cc(N=Nc2ccc(S(=O)(=O)O)cc2)c(N)c(N=Nc2ccc(-c3ccc(N=Nc4cc(C)c(O)c(C(=O)O)c4)cc3)cc2)c1N,9960 mg/kg
23,O=C1C=CC(=O)N1c1c(F)c(F)c(F)c(N2C(=O)C=CC2=O)c1F,2100 mg/kg
24,CCOP(=S)(OCC)Oc1ccc([N+](=O)[O-])cc1Cl,10 mg/kg
25,OCC(O)CN1CCN(c2ccccc2)CC1 (stereo not drawn),750 mg/kg

row,Structure (SMILES),LD50
1,CN(CCc1ccccc1)N=O,48 mg/kg
2,Clc1ccc(N2CCN(C/C=C/c3ccccc3)CC2)nn1,483 mg/kg
3,CC(C)c1ccc(C#N)cc1,3900 mg/kg
4,CCOC(=O)N(C)N=O,180 mg/kg
5,COc1ccc(-c2noc(CC(=O)O)c2-c2ccc(OC)cc2)cc1,887 mg/kg
6,COc1c(OP(=S)(OC)OC)cnn(C)c1=O,2.5 mg/kg
7,O=C(NNCS(=O)(=O)O)c1ccncc1,14400 mg/kg
8,Clc1cc(Cl)c2nsnc2c1Cl,1620 mg/kg
9,Nc1ccc(S(=O)(=O)O)c2cccc(O)c12,6210 mg/kg
10,CCOP(=S)(OCC)Oc1cc(C)c(SC)c(C)c1,375 mg/kg
11,CCCCCCCC/C=C\CCCCCCCC(=O)N(C)CCS(=O)(=O)O,1700 mg/kg
12,CCN(CCCCOC(=O)c1ccc(OC)c(OC)c1)C1CCc2cc(OC)c(OC)cc2C1 (stereo not drawn),1540 mg/kg
13,CCOC(=S)SSSSC(=S)OCC,275 mg/kg
14,CCCOC(=O)CCC(=O)OCCC,6490 mg/kg
15,CN=C(O)O/N=C1/SCOC1C (stereo not drawn),12 mg/kg
16,FC(F)(F)C(=NOCC1OCCO1)c1ccc(Cl)cc1,669 mg/kg
17,CCOC(CC(OCC)OCC)OCC,1610 mg/kg
18,COc1ccc(CN2CCNCC2)c(OC)c1OC,1700 mg/kg
19,Cn1c2c(c3ccc(N)cc31)CCCC2,705 mg/kg
20,CCOC(=O)CCC(=O)CC1(O)C2(Cl)C3(Cl)C4(Cl)C(Cl)(Cl)C5(Cl)C3(Cl)C1(Cl)C5(Cl)C42Cl (stereo not drawn),240 mg/kg
21,O=NN(O)c1ccccc1,199 mg/kg and 490 mg/kg
22,C/C(=N/NC(=O)c1ccncc1)c1ccco1,110 mg/kg
23,C[N+]1(C)CCC(=C(c2ccccc2)c2ccccc2)CC1,1110 mg/kg
24,OCCN1CCN(CCCN2c3ccccc3C=Cc3ccccc32)CC1,1110 mg/kg and 900 mg/kg
25,CCCCOP(=O)(O)OCCCC,3200 mg/kg and 3520 mg/kg

row,Structure (SMILES),LD50
1,CCCCCCCCCCCCOCCOCCOCCOS(=O)(=O)O,1820 mg/kg
2,C1CC2OC2CC1C1CO1 (stereo not drawn),2830 mg/kg
3,CC(C)=CC1C(C(=O)OC2CC(=O)C(C3C=CCC3)=C2C)C1(C)C (stereo not drawn),1410 mg/kg
4,N#CCN(CC#N)N=O,163 mg/kg
5,CC12CCC(=O)CC1CCC1C2CCC2(C)C(C(=O)COC(=O)CCC(=O)O)CCC12 (stereo not drawn),700 mg/kg
6,CC(C)OP(=S)(OC(C)C)SCn1nc(Cl)ccc1=O,190 mg/kg
7,CC(C)C(Br)C(=O)O (stereo not drawn),769 mg/kg
8,CC(C)=C1C(=O)N(c2ccccc2)N(c2ccccc2)C1=O,1280 mg/kg
9,CC(=O)N[C@@H](Cc1c[nH]c2ccccc12)C(=O)O,15000 mg/kg
10,NCc1cccc(CN)c1,930 mg/kg
11,CC=CC=CC=CC(C)=O,4300 mg/kg
12,NS(=O)(=O)c1cc2c(cc1Cl)CN(C1CCCCC1)C2=O,6000 mg/kg
13,C=C(Cl)CCl,320 mg/kg
14,CN[C@@H]1[C@H](O[C@H]2[C@H](O[C@H]3[C@H](O)[C@@H](O)[C@H](NC(=N)N)[C@@H](O)[C@@H]3NC(=N)N)O[C@@H](C)[C@]2(O)C=O)O[C@@H](CO)[C@H](O)[C@H]1O,9000 mg/kg
15,CC(C=CC=C(C)C=CC(=O)C1(C)CC(O)CC1(C)C)=CC=CC=C(C)C=CC=C(C)C=CC1=C(C)CC(O)CC1(C)C (stereo not drawn),11200 mg/kg
16,c1ccc(C2(c3ccccc3)CC2C2=NCCN2)cc1 (stereo not drawn),359 mg/kg
17,CCc1ccc(OCC=C(C)CCC=C(C)C)cn1,800 mg/kg
18,C=CC(OC(C)=O)OC(C)=O,35 mg/kg
19,NCC(O)c1ccc(O)c(O)c1 (stereo not drawn),132 mg/kg
20,CCC(=O)OC(CC)(c1ccccc1)C1CCN(C)C1 (stereo not drawn),460 mg/kg
21,O=NN(c1cccc(C(F)(F)F)c1)c1ccccc1C(=O)O,900 mg/kg
22,S=c1[nH]nc(NCNc2n[nH]c(=S)s2)s1,4640 mg/kg
23,O=[N+]([O-])c1cc[n+]([O-])cc1,107 mg/kg
